According to US7404975B2, “Moringa crude extracts and their derived fractions with antifungal activities” (Academia Sinica, priority 2006, dated 2008):

Test system: Epidermophyton floccosum
Test: Broth dilution anti-fungal susceptibility assay (NCCLS M38-A), MIC
Assay type: cell-based
Procedure: M. oleifera was grown and collected from Taichung, Taiwan. The seeds were de-hulled and the seed kernels dried at 100° C. for 24 h before extraction. The leaves were freshly harvested from M. oleifera trees of at least one-year-old and immediately air-dried. All materials were lyophilized and powdered before experiments. The dermatophytes used in this study were obtained from the Food Industry Research and Development Institute (FIRDI) in Taiwan. Trichophyton rubrum (BCRC 32805), Trichophyton mentagrophytes (BCRC 32066), Epidermophyton floccosum (BCRC 30531) and Microsporum canis (BCRC 30541) were maintained by monthly sub-culturing on Sabouraud dextrose agar (SDA) at 28° C.
The anti-fungal assays followed the protocol (document M38-A) of The National Committee for Clinical Laboratory Standards (NCCLS) in the USA. The protocol is a standard method for broth dilution anti-fungal susceptibility testing of filamentous fungi. 100× of the drug (such as ketoconozole; the MICs of this agent tested on the fungi described above were from 0.125 μg/ml to 12.5 μg/ml ) used for the control experiment. […] The minimal inhibitory concentration (MIC), which is defined as the lowest concentration of an anti-microbial agent preventing the visible growth of a microorganism in an agar or broth dilution susceptibility test (numerical score 0), was determined for each test sample.

Structure (SMILES): CC(=O)N1CCN(c2ccc(OCC3COC(Cn4ccnc4)(c4ccc(Cl)cc4Cl)O3)cc2)CC1 (stereo not shown) [ketoconozole, ketoconazole]
- MIC (text comparison ketoconozole vs EOF): 0.125 ˜ig/ml
